Results: PubChem BioAssay AID248 (DTP/NCI, 2004)
Where “and” joins values, the source holds several entries; their conditions need not be identical. Equal entries are not always repeated. Toxic doses and inconclusive results are not listed. Cut-off read from the data, not from the text of the source: active = T/C of 150% or more; inactive = T/C below 125%.

Tested on: L1210 leukemia ip in BDF1 mice, survival T/C
Experiment: NCI In Vivo Anticancer Drug Screen. Data for tumor model L1210 Leukemia (intraperitoneal) in B6D2F1 (BDF1) mice
Settings: endpoint: mean survival time, higher = longer survival
Method in brief: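 Survival endpoint. Drug-treated group vs vehicle group, expressed as T divided by C. Tumor passaged by transplantation.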

[1] = dose: 50.0 mg/kg/injection, schedule: Q01DX009 (ip), vehicle: Klucel (hydroxypropylcellulose) (HPC)
[2] = dose: 100.0 mg/kg/injection, schedule: Q01DX009 (ip), vehicle: saline
[3] = dose: 200.0 mg/kg/injection, schedule: Q01DX009 (ip), vehicle: saline
[4] = dose: 400.0 mg/kg/injection, schedule: Q01DX009 (ip), vehicle: saline
[5] = dose: 100.0 mg/kg/injection, schedule: Q04DX003 (ip), vehicle: saline with Tween-80
[6] = dose: 200.0 mg/kg/injection, schedule: Q04DX003 (ip), vehicle: saline with Tween-80
[7] = dose: 100.0 mg/kg/injection, schedule: Q04DX002 (ip), vehicle: saline with Tween-80
[8] = dose: 200.0 mg/kg/injection, schedule: Q04DX002 (ip), vehicle: saline with Tween-80
[9] = dose: 400.0 mg/kg/injection, schedule: Q04DX002 (ip), vehicle: saline with Tween-80
[10] = dose: 100.0 mg/kg/injection, schedule: Q01DX009 (ip), vehicle: saline with Tween-80
[11] = dose: 200.0 mg/kg/injection, schedule: Q01DX009 (ip), vehicle: saline with Tween-80
[12] = dose: 400.0 mg/kg/injection, schedule: Q04DX003 (ip), vehicle: saline with Tween-80
[13] = dose: 100.0 mg/kg/injection, schedule: Q01DX001 (ip), vehicle: saline with Tween-80
[14] = dose: 200.0 mg/kg/injection, schedule: Q01DX001 (ip), vehicle: saline with Tween-80
[15] = dose: 400.0 mg/kg/injection, schedule: Q01DX001 (ip), vehicle: saline with Tween-80
[16] = dose: 100.0 mg/kg/injection, schedule: Q01DX001 (ip), vehicle: saline
[17] = dose: 200.0 mg/kg/injection, schedule: Q01DX001 (ip), vehicle: saline
[18] = dose: 400.0 mg/kg/injection, schedule: Q01DX001 (ip), vehicle: saline
[19] = dose: 100.0 mg/kg/injection, schedule: Q01DX001 (ip), vehicle: carboxymethylcellulose (CMC)
[20] = dose: 200.0 mg/kg/injection, schedule: Q01DX001 (ip), vehicle: carboxymethylcellulose (CMC)

Measured: T/C

C[N+](C)(C)Cc1ccccc1C=C(c1ccccc1)c1ccccc1
inactive: dose: 12.5 mg/kg/injection, schedule: Q01DX009 (ip), vehicle: Klucel (hydroxypropylcellulose) (HPC) 98 % of control | dose: 25.0 mg/kg/injection, schedule: Q01DX009 (ip), vehicle: Klucel (hydroxypropylcellulose) (HPC) 104 % of control | dose: 25.0 mg/kg/injection, schedule: Q04DX003 (ip), vehicle: Klucel (hydroxypropylcellulose) (HPC) 101 % of control | [1] 98 % of control | dose: 50.0 mg/kg/injection, schedule: Q04DX003 (ip), vehicle: Klucel (hydroxypropylcellulose) (HPC) 88 % of control

CC(C)(Cc1ccccc1)NC(=O)NCCCl
inactive: [2] 97 % of control | dose: 100.0 mg/kg/injection, schedule: Q04DX002 (ip), vehicle: saline 93 % of control | [3] 91 % of control | dose: 200.0 mg/kg/injection, schedule: Q04DX002 (ip), vehicle: saline 96 % of control | [4] 108 % of control | dose: 400.0 mg/kg/injection, schedule: Q04DX002 (ip), vehicle: saline 96 % of control

O=C(Nc1cccc(Cl)c1Cl)OCCN1CCNC1=S
inactive: [2] 94 % of control | [3] 96 % of control | [4] 102 % of control

Nc1ccc(/C=C2\C=Cc3ccccc32)cc1
inactive: dose: 8.5 mg/kg/injection, schedule: Q01DX009 (ip), vehicle: saline 98 % of control | dose: 17.0 mg/kg/injection, schedule: Q01DX001 (ip), vehicle: acetone 98 % of control | dose: 17.0 mg/kg/injection, schedule: Q01DX009 (ip), vehicle: saline 97 % of control | dose: 35.0 mg/kg/injection, schedule: Q01DX001 (ip), vehicle: acetone 105 % of control | dose: 35.0 mg/kg/injection, schedule: Q01DX009 (ip), vehicle: saline 101 % of control | dose: 100.0 mg/kg/injection, schedule: Q01DX001 (ip), vehicle: olive oil, sesame oil, peanut oil 94 % of control

COc1ccc(CC(=O)OOC(C)(C)C)cc1
inactive: [5] 100 % of control | [6] 92 % of control

CC(=O)OC1CCC(NC(N)=O)CC1 (configuration not stated)
inactive: dose: 176.0 mg/kg/injection, schedule: Q01DX001 (ip), vehicle: other 102 % of control | dose: 264.0 mg/kg/injection, schedule: Q01DX001 (ip), vehicle: other 120 % of control | dose: 400.0 mg/kg/injection, schedule: Q01DX001 (ip), vehicle: other 97 % of control | dose: 600.0 mg/kg/injection, schedule: Q01DX001 (ip), vehicle: other 105 % of control

CCC1(CCC#N)CCc2[nH]c3ccccc3c2C1=O (configuration not stated)
inactive: [7] 108 % of control | [8] 94 % of control | [9] 87 % of control

N#CCc1[nH]cnc1C#N
inactive: dose: 100.0 mg/kg/injection, schedule: Q04DX003 (ip), vehicle: water 100 % of control and 111 % of control and 115 % of control | dose: 200.0 mg/kg/injection, schedule: Q04DX003 (ip), vehicle: water 95 % of control and 115 % of control | dose: 300.0 mg/kg/injection, schedule: Q04DX003 (ip), vehicle: water 113 % of control | dose: 400.0 mg/kg/injection, schedule: Q04DX003 (ip), vehicle: water 100 % of control (2×) and 122 % of control

Oc1cc(-c2cc(O)c(O)c(O)c2)cc(O)c1O
inactive: [10] 104 % of control | [11] 108 % of control

COc1ccc(C(=O)CCC(=O)O)c(C)c1
inactive: [2] 97 % of control | [3] 101 % of control | [4] 105 % of control

CCCC[n+]1cccc(C(=O)c2ccccc2)c1
inactive: dose: 75.0 mg/kg/injection, schedule: Q01DX001 (ip), vehicle: saline 101 % of control

NC(=O)c1nccnc1C(N)=O
inactive: dose: 100.0 mg/kg/injection, schedule: Q04DX003 (ip), vehicle: Klucel (hydroxypropylcellulose) (HPC) 101 % of control | [5] 96 % of control | dose: 200.0 mg/kg/injection, schedule: Q04DX003 (ip), vehicle: Klucel (hydroxypropylcellulose) (HPC) 101 % of control | [6] 96 % of control | dose: 400.0 mg/kg/injection, schedule: Q04DX003 (ip), vehicle: Klucel (hydroxypropylcellulose) (HPC) 93 % of control | [12] 96 % of control

CC(C)c1ccc2c(c1)CC[C@H]1[C@](C)(C(=O)O)CCC[C@]21C
inactive: [13] 101 % of control | [14] 105 % of control | [15] 105 % of control

CCCSc1ncnc2c1ncn2COC(=O)NC
inactive: [16] 97 % of control | [17] 108 % of control | [18] 108 % of control

O=C(O)c1ccc(OCc2ccccc2)c(Br)c1
inactive: [13] 97 % of control | [14] 104 % of control | [15] 98 % of control

O=[N+]([O-])c1c(Cl)sc(Cl)c1[N+](=O)[O-]
inactive: dose: 3.13 mg/kg/injection, schedule: Q01DX009 (ip), vehicle: saline sonified 98 % of control | dose: 6.25 mg/kg/injection, schedule: Q01DX009 (ip), vehicle: saline sonified 100 % of control | dose: 6.25 mg/kg/injection, schedule: Q04DX003 (ip), vehicle: Klucel (hydroxypropylcellulose) (HPC) 86 % of control | dose: 12.5 mg/kg/injection, schedule: Q01DX009 (ip), vehicle: saline sonified 101 % of control | dose: 12.5 mg/kg/injection, schedule: Q04DX003 (ip), vehicle: Klucel (hydroxypropylcellulose) (HPC) 86 % of control

O=[N+]([O-])c1c(Cl)nc2ccccn12
inactive: dose: 3.13 mg/kg/injection, schedule: Q01DX009 (ip), vehicle: saline 93 % of control | dose: 5.0 mg/kg/injection, schedule: Q01DX001 (ip), vehicle: saline 100 % of control | dose: 6.25 mg/kg/injection, schedule: Q01DX009 (ip), vehicle: saline 95 % of control | dose: 10.0 mg/kg/injection, schedule: Q01DX001 (ip), vehicle: saline 98 % of control | dose: 12.5 mg/kg/injection, schedule: Q01DX009 (ip), vehicle: saline 93 % of control | dose: 20.0 mg/kg/injection, schedule: Q01DX001 (ip), vehicle: saline 100 % of control | dose: 25.0 mg/kg/injection, schedule: Q01DX009 (ip), vehicle: saline 93 % of control | dose: 40.0 mg/kg/injection, schedule: Q01DX001 (ip), vehicle: saline 96 % of control | dose: 80.0 mg/kg/injection, schedule: Q01DX001 (ip), vehicle: saline 93 % of control | [16] 101 % of control | [17] 110 % of control | [18] 108 % of control

CCOC(=O)c1nnc(-c2ccccc2)[nH]c1=O
inactive: [1] 92 % of control | dose: 100.0 mg/kg/injection, schedule: Q01DX009 (ip), vehicle: Klucel (hydroxypropylcellulose) (HPC) 103 % of control | dose: 200.0 mg/kg/injection, schedule: Q01DX009 (ip), vehicle: Klucel (hydroxypropylcellulose) (HPC) 103 % of control

Nn1c(C(F)(F)F)n[nH]c1=S
inactive: dose: 100.0 mg/kg/injection, schedule: Q04DX003 (ip), vehicle: alcohol 103 % of control | dose: 200.0 mg/kg/injection, schedule: Q04DX003 (ip), vehicle: alcohol 101 % of control | dose: 400.0 mg/kg/injection, schedule: Q04DX003 (ip), vehicle: alcohol 95 % of control

COc1cc(C)c2c(OC)ccc(OC)c2n1
inactive: [16] 94 % of control | [17] 97 % of control | [18] 103 % of control

O=C(O)c1ccc([N+](=O)[O-])cc1O
inactive: [19] 101 % of control | [7] 95 % of control | [20] 97 % of control | [8] 98 % of control | [9] 102 % of control

CCOC(=O)C1=C(C)NC(C)=C(C(=O)OCC)C1c1ccc(Cl)cc1
inactive: [5] 98 % of control | [6] 93 % of control | [12] 88 % of control

CCCCCOC(=O)C1OC1(C)c1ccccc1 (configuration not stated)
inactive: [10] 98 % of control | [11] 91 % of control | dose: 400.0 mg/kg/injection, schedule: Q01DX009 (ip), vehicle: saline with Tween-80 88 % of control

O=C(O)c1cc2ccc3ccccc3c2oc1=O
inactive: [19] 87 % of control | [20] 92 % of control | dose: 400.0 mg/kg/injection, schedule: Q01DX001 (ip), vehicle: carboxymethylcellulose (CMC) 92 % of control

CC1=CC(=O)CC(C)C1 (configuration not stated)
inactive: [16] 111 % of control | [17] 94 % of control | [18] 103 % of control
